Paper PMC10778980, “Profiling Novel Quinuclidine-Based Derivatives as Potential Anticholinesterase Drugs: Enzyme Inhibition and Effects on Cell Viability” (International Journal of Molecular Sciences, 2023)
“Also recorded” adds a separate entry of the source. Read-outs that look alike come from different tables or passages of the source.

How the values were obtained:
HepG2 cells [1] = assay: Mitochondrial membrane potential (TMRE assay) on HepG2; type: cell-based, human; conditions: HepG2, 4 h exposure, LOAEL concentrations
Experimental: (§1) Human neuroblastoma SH-SY5Y (ECACC 94030304) and human hepatocyte carcinoma HepG2 (ECACC 85011430) were used to evaluate in vitro dose- and time-dependent different cell effects. The SH-SY5Y cell line was selected as it represents a well-established model for studying neuronal cells, while HepG2 hepatocytes represent a liver model as a major organ participating in the metabolism of diverse compounds [31, 61, 62]. SH-SY5Y cells were grown in DMEM F12 (Sigma-Aldrich, St. Louis, MO, USA) supplemented with 15% (v/v) fetal bovine serum (FBS), 2 mM glutamine, and 1% (v/v) non-essential amino acids (NEAA). HepG2 cells were grown in EMEM supplemented with 10% (v/v) FBS, 2 mM glutamine, and 1% (v/v) non-essential amino acids NEAA. All media and supplements were purchased from Sigma-Aldrich, Steinheim, Germany.
(§2) Mitochondrial membrane potential (ΔΨm) was determined using a cell-permeable, potential-sensitive cationic dye, tetramethylrhodamine ethyl ester perchlorate (TMRE, Cell Signaling Technology Europe, Leiden, The Netherlands). Cells were exposed for 4 h to derivatives 3–5 and 10–12. The procedure followed a previously described protocol. A concentration of 50 µM carbonyl cyanide 3-chlorophenylhydrazone (CCCP, Cell Signaling Technology Europe, Leiden, The Netherlands) was used as a positive control. Data were evaluated from at least three independent experiments (performed in duplicate) and presented as a normalized signal to the untreated control, according to the manufacturer’s calculation protocol.

HepG2 cells [2] = assay: Cell membrane integrity (LDH release) on HepG2; type: cell-based, human; conditions: HepG2, 4 h exposure, 12.5–200 µM
Experimental: as §1
(§3) Cell membrane integrity was determined after 4 h exposure to derivatives 3–5 and 10–12 by measuring the release of the intracellular lactate dehydrogenase (LDH), and the procedure followed a previously described protocol using The CytoTox-ONE™ Homogeneous Membrane Integrity Assay (Promega, Madison, WI, USA). Triton X-100 at a final concentration of 0.18% (v/v) (stock of 9% in water; Sigma-Aldrich, Steinheim, Germany) was used as a positive control to determine the maximal LDH release. Data were taken from at least two independent experiments (each treatment performed in duplicate) and plotted as a percentage of LDH release compared to the determined maximal LDH release, according to the manufacturer’s calculation protocol.

human AChE = target: T1, human AChE (Homo sapiens, UniProt P22303); assay: Reversible inhibition of AChE (Ellman's procedure, Hunter–Downs evaluation); type: biochemical; conditions: for Ki: Ki ± standard error, 0.1, 0.2, 0.35 and 0.5 mM substrate ATCh, 25 °C, pH 7.4; for Ki (AChE)/Ki (BChE): selectivity ratio
T1 construct: The sources of human AChE and BChE were native erythrocytes and plasma, respectively; from tissue; host or cells: human erythrocytes from venous blood of a healthy volunteer
Description: (§4) Cholinesterase substrate acetylthiocholine (ATCh) and the thiol reagent 5,5′-dithiobis(2-nitrobenzoic acid) (DTNB) for the enzyme activity measurement were purchased from Sigma-Aldrich (St. Louis, MO, USA). The sources of human AChE and BChE were native erythrocytes and plasma, respectively, obtained from the blood of a healthy volunteer and in accordance with the approval of the Ethics Committee of the Institute for Medical Research and Occupational Health (approval number: 100-21/23-6). Erythrocytes and plasma were isolated from the whole blood and prepared according to a previously published procedure. Namely, venous blood was collected into a heparinized tube and centrifuged (at 4 °C, 20 min on 2500 rpm, Eppendorf centrifuge 5702R) to separate plasma from the erythrocytes. Plasma was removed and used as a source of BChE, while erythrocytes were washed twice with the 0.1 M sodium phosphate buffer, pH 7.4, in a volume corresponding to the initial volume of the whole blood. Both plasma and erythrocytes were frozen at −20 °C until use. Quinuclidine compounds were dissolved in dH2O as 10 or 100 mM; exceptionally, 3-hydroxyimino compounds with longer chains (C12−C16) were dissolved in DMSO as 100 mM solutions. Stock solutions were kept at 4 °C until use. Further dilutions were made in distilled water.
(§5) The reversible inhibition experiments followed a previously published procedure. Namely, the enzyme activity was measured in the presence of a wide range of quinuclidine compound concentrations and in the substrate range from 0.1 to 0.5 mM to confirm the type of compound binding. The activity was assayed following the Ellman’s procedure, with the modification in the wavelength used for detection of the TNB anion in the case of AChE activity measurement due to the interference of the hemoglobin, and according to Worek et al.. The assay was performed in 96-well plates on an Infinite M200PRO plate reader (Tecan Austria GmbH, Salzburg, Austria) at 25 °C. Each concentration was tested in triplicate or quadruplicate on each plate. The inhibition mixture contained 0.1 M sodium phosphate buffer, pH 7.4, enzyme (AChE or BChE), quinuclidine compound (0.2–400 μM final), DTNB (0.3 mM final), and ATCh (from 0.1 to 0.5 mM final) to start the reaction. The increase in absorbance was read at 436 nm for AChE and at 412 nm for BChE. The measured activity in the presence of compounds was corrected for the non-enzymatic hydrolysis of substrate ATCh, if detected. The reversible enzyme–quinuclidine complex dissociation constants (the inhibition constants) Ki were evaluated from the effect of the substrate concentration on the degree of inhibition according to the Hunter–Downs equation as described previously, taking into account only quinuclidine concentrations where 20–80% inhibition of the activity was observed.

SH-SY5Y cells [3] = assay: Cell membrane integrity (LDH release) on SH-SY5Y; type: cell-based, human; conditions: 4 h exposure, 12.5–200 µM
Experimental: as §1, §3

caspase 8 = assay: Caspase 8 activity in SH-SY5Y (multiplex activity assay kit); type: cell-based, human; conditions: 4 h treatment, LOAEL concentrations
Experimental: (§6) SH-SY5Y cells were grown in DMEM F12 (Sigma-Aldrich, St. Louis, MO, USA) supplemented with 15% (v/v) fetal bovine serum (FBS), 2 mM glutamine, and 1% (v/v) non-essential amino acids (NEAA). HepG2 cells were grown in EMEM supplemented with 10% (v/v) FBS, 2 mM glutamine, and 1% (v/v) non-essential amino acids NEAA. All media and supplements were purchased from Sigma-Aldrich, Steinheim, Germany.
Caspases (cysteine-aspartic proteases) caspase 3, caspase 8, and caspase 9 were simultaneously analyzed in cells using specific substrate and fluorogenic indicators from the Caspase-3, Caspase-8, and Caspase-9 Multiplex Activity Assay Kit (Abcam, Cambridge, UK). […] The procedure followed a previously described protocol. […] Data were evaluated from at least three independent experiments (performed in duplicate or triplicate), according to the manufacturer’s assay kit calculation protocol, and presented as a normalized signal to the untreated control.

human BChE = target: T2, human BChE (Homo sapiens, UniProt P06276); assay: biochemical; conditions: Ki ± standard error; 0.1, 0.2, 0.35 and 0.5 mM substrate ATCh; 25 °C, pH 7.4; read-out: Ki BChE
T2 construct: Plasma was removed and used as a source of BChE; from tissue; host or cells: human blood plasma from a healthy volunteer
Description: as §4, §5

SH-SY5Y cells [4] = assay: Cytotoxicity assay (MTS) on SH-SY5Y; type: cell-based; conditions: Homo sapiens
Experimental: as §6
(§7) The procedure followed a previously described protocol.

HepG2 cells [5] = assay: Cytotoxicity assay (MTS) on HepG2; type: cell-based; conditions: Homo sapiens
Experimental: as §6, §7

SH-SY5Y cells [6] = assay: Mitochondrial membrane potential (TMRE assay) on SH-SY5Y; type: cell-based, human; conditions: 4 h exposure, LOAEL concentrations
Experimental: as §1, §2

SH-SY5Y cells [7] = conditions: cited from earlier work
[8] = 4 h exposure, read-out: IC50 ± SE SH-SY5Y 4 h
[9] = 24 h exposure, read-out: IC50 ± SE SH-SY5Y 24 h
[10] = read-out: IC50 ± SE SH-SY5Y 1 h, 1 h exposure
[11] = HepG2, read-out: IC50 ± SE HepG2 1 h, 1 h exposure
[12] = HepG2, 4 h exposure, read-out: IC50 ± SE HepG2 4 h
[13] = HepG2, 24 h exposure, read-out: IC50 ± SE HepG2 24 h

T2 sequence (P06276 29-602): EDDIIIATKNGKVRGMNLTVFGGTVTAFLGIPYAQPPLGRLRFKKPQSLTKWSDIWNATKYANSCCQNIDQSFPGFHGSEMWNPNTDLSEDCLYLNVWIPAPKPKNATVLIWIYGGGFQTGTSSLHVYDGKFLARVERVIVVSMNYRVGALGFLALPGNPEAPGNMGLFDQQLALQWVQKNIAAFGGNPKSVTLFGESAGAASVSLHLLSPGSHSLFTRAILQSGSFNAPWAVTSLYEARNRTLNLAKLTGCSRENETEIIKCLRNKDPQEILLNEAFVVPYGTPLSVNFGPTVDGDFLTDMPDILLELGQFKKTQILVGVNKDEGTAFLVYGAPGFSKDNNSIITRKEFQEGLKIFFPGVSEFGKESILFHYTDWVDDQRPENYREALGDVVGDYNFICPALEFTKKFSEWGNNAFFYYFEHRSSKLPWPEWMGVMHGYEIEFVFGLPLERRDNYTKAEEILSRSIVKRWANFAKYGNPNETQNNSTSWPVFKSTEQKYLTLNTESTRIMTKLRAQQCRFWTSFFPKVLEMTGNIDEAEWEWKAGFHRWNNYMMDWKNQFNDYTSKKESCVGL
T1 sequence (P22303 32-617 isoform P22303-2 limits assumed): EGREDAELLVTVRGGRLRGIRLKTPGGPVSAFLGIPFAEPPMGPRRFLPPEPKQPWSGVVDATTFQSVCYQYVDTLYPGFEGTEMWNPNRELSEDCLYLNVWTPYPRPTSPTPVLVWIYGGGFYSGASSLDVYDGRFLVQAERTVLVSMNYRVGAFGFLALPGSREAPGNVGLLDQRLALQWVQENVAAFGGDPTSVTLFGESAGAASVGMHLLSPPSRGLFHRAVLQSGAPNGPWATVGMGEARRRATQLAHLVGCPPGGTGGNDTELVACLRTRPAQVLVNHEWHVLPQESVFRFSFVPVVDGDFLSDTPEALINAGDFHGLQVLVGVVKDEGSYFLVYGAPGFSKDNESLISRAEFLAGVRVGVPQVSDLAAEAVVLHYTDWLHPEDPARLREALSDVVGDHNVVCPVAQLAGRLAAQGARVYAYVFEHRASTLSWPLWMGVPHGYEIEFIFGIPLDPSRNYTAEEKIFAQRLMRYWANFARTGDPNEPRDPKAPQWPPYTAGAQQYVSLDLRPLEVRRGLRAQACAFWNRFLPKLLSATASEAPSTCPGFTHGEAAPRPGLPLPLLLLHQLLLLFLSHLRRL

| SMILES | Mitochondrial membrane potential (ΔΨm) (HepG2 cells [1]) | LDH release (HepG2 cells [2]) | Ki (human AChE) [µM] | Ki (AChE)/Ki (BChE) (human AChE) | LDH release (SH-SY5Y cells [3]) | Caspase 8 activation (caspase 8) | Ki (human BChE) [µM] | IC50 (SH-SY5Y cells [4]; [8]) [µM] | IC50 (SH-SY5Y cells [4]; [9]) [µM] | IC50 (SH-SY5Y cells [4]; [10]) [µM] | IC50 (HepG2 cells [5]; [11]) [µM] | IC50 (HepG2 cells [5]; [12]) [µM] | IC50 (HepG2 cells [5]; [13]) [µM] | Mitochondrial membrane potential (ΔΨm) (SH-SY5Y cells [6]) | IC50 (SH-SY5Y cells [7]; 24 h exposure, controls, read-out: IC50 ± SE SH-SY5Y 24 h) [µM] | IC50 (SH-SY5Y cells [7]; read-out: IC50 ± SE SH-SY5Y 1 h, 1 h exposure, controls) [µM] | IC50 (SH-SY5Y cells [7]; [9]) [µM] |
| --- | --- | --- | --- | --- | --- | --- | --- | --- | --- | --- | --- | --- | --- | --- | --- | --- | --- |
| CCCCCCCCCCCCCC[N+]12CCC(CC1)/C(=N\O)C2 [Compound 11] | decrease in the mitochondrial membrane potential | significant LDH release | 7 ± 0.9 | 0.8 | strongest effect; also recorded: significant LDH release | significant activation | 8.8 ± 1 | 83 ± 3 | 60 ± 1 | 125 ± 2 | 37 ± 1 | 18 ± 1 | 11 ± 1 | decrease in the mitochondrial membrane potential | – | – | – |
| CCCCCCCCCCCCCCCC[N+]12CCC(CC1)/C(=N\O)C2 [Compound 12] | decrease in the mitochondrial membrane potential | significant LDH release | 19 ± 1.6 | 0.4 | strongest effect; also recorded: significant LDH release | significant activation | 48.6 ± 3.8 | 78 ± 1 | 54 ± 1 | 89 ± 1 | 40 ± 1 | 20 ± 1 | 7 ± 1 | decrease in the mitochondrial membrane potential | – | – | – |
| CN[C@@H]1C[C@H]2O[C@@](C)([C@@H]1OC)n1c3ccccc3c3c4c(c5c6ccccc6n2c5c31)C(=O)NC4 [SS, staurosporine] | – | – | – | – | – | – | – | – | – | – | – | – | – | – | 0.12 ± 0.01 | ≥ 4 | – |
| CCCCCCCCCCCC[N+]12CCC(CC1)/C(=N\O)C2 [Compound 10] | decrease in the mitochondrial membrane potential | significant LDH release | 14.3 ± 1.8 | 2.6 | strongest effect; also recorded: significant LDH release | significant activation | 5.4 ± 0.8 | 174 ± 1 | – | 208 ± 3 | 218 ± 1 | 81 ± 1 | 15 ± 1 | decrease in the mitochondrial membrane potential | – | – | 147 ± 1 |
| CCCCCCCCCCCCCC[N+]12CCC(CC1)C(O)C2 (stereo not shown) [Compound 4] | decrease in the mitochondrial membrane potential | strongest effect; also recorded: significant LDH release | 4.2 ± 0.5 | 0.5 | significant LDH release | – | 7.9 ± 0.7 | 9 ± 1 | 7 ± 1 | 16 ± 1 | 35 ± 1 | 32 ± 1 | 43 ± 1 | decrease in the mitochondrial membrane potential | – | – | – |
| CCCCCCCCCCCCCCCC[N+]12CCC(CC1)C(O)C2 (stereo not shown) [Compound 5] | strongest effect; also recorded: decrease in the mitochondrial membrane potential | strongest effect; also recorded: significant LDH release | 9 ± 1.3 | 0.3 | significant LDH release | – | 26.1 ± 2.4 | 8 ± 1 | 7 ± 1 | 11 ± 1 | 46 ± 1 | 26 ± 1 | 28 ± 1 | decrease in the mitochondrial membrane potential | – | – | – |
